These results are taken from patent US8968663B2, “Monitoring membrane-bound proteins” (University of Utah Research Foundation, priority 2011, dated 2015).

Molecules are shown by their SMILES.

Assay [1] has as its system ShakerB-IR K^+ ion channel. The following applies: extracellular application; stated as known; cited from earlier work.
Assay [2] concerns ShakerB-IR K^+ ion channel. Kind of assay: RF (500 kHz) impedance interrogation of ShakerB-IR expressing Xenopus oocytes under voltage clamp. Format: cell-based. Particulars: ~120 μM Cu^2+, 500 kHz RF signal, FIG. 10. The method, then: Complementary deoxyribonucleic acid (cDNA) for the Shaker ion-channel variant ShakerB-IR (inactivation removed) was transformed in E. coli and linearized using the restriction enzyme, Kpn-1. cRNA was transcribed from linearized DNA, and 32 nL/cell of the transcribed RNA was injected into Xenopus oocytes. Recordings were done 24-48 hours after injection to allow time for protein expression. Currents were measured using two-microelectrode voltage clamp to verify ShakerB-IR ion channel expression. […]
(§1) RF voltage measurements were sampled through a head-stage voltage-follower operational amplifier (OPA356, Texas Instruments, Dallas, Tex.). The RF signal was high pass filtered (100 kHz, 48 DB/oct Bessel HPF; SIM965, Stanford Research Systems, Sunnyvale, Calif.) and detected by a lock-in amplification (0 integration time, SR844, Stanford Research Systems, Sunnyvale, Calif.). The quadrature outputs on the lock-in amplifier detected changes on the order of 10 microvolts, and time delays caused by the lock-in amplifier and HPF were accounted for prior to data analysis. TEVC data (command voltage, sensed voltage, measured current) and RF data (quadrature outputs from the lock-in amplifier) were sampled every 20 μs using a 16 bit A-D converter (ITC-18, HEKA Inst. Bellmore, N.Y.). […]

The subject of assay [3] is control oocytes (endogenous protein response). Description: RF (500 kHz) impedance interrogation of control Xenopus oocytes under voltage clamp. The format is cell-based. Particulars: ~120 μM Cu^2+, 500 kHz RF signal, FIG. 10.
Text: (§2) Oocytes were positioned into a recording chamber consisting of an RF belt electrode surrounding the meridian of the cell and a ground electrode located in the oocyte media above an axial pole of the cell. Two glass micropipettes (1-3 MΩ access resistance) filled with 3M KCL were carefully guided into the oocyte using an upright microscope (Zeiss AxioTech). One micropipette was attached to a voltage-measuring headstage (HS-2Ax1 LU, Molecular Devices, Sunnyvale, Calif.) and the second micropipette was attached to a current-injecting headstage (HS-2Ax10MGU, Molecular Devices, Sunnyvale, Calif.). […]
as §1

The subject of assay [4] is ShakerB-IR K^+ ion channel. Description: Two-electrode voltage clamp of ShakerB-IR expressing Xenopus oocytes with Cu^2+ applied as ion channel blocker. The format is cell-based. Particulars: ~120 μM Cu^2+ pipetted above the cell, FIG. 10. The method, then:
Complementary deoxyribonucleic acid (cDNA) for the Shaker ion-channel variant ShakerB-IR (inactivation removed) was transformed in E. coli and linearized using the restriction enzyme, Kpn-1. cRNA was transcribed from linearized DNA, and 32 nL/cell of the transcribed RNA was injected into Xenopus oocytes. Recordings were done 24-48 hours after injection to allow time for protein expression. Currents were measured using two-microelectrode voltage clamp to verify ShakerB-IR ion channel expression. Oocytes were stored in Superbarths Oocyte media (88 mM NaCl, 1 mM KCl, 0.41 mM CaCl2, 0.33 mM Ca(NO3)2, 1 mM MgSO4, 2.4 mM NaHCO3, 10 mM HEPES, 1 mM pyruvate and 50 μg/ml gentamicin, titrated using NaOH to a pH of 7.4) at 17° Celsius (C.). Oocytes were also bathed in this media during RF recording.
as §2

Turning to `[Cu+2]` [Cu^2+], the “known effect of extracellular Cu^2+ on K^+ conductance” value in assay [1] is “shift the K^+ conductance to more depolarized levels”. For the same molecule, the “effect on charge displacement within the RF electric field (voltage-dependent RF impedance)” value in assay [2] is listed as “increased charge displacement within the RF electric field”. The “effect on charge displacement within the RF electric field in control cells” value in assay [3] is on record as “not observed to the same extent in control cells”. The “effect on ShakerB-IR K^+ current” value in assay [4] was “blocked the ShakerB-IR K^+ current”.
